Data reported in patent publication EP1738803A1, “Inhibitors of staphylococcus hominis in deodorants and antiperspirants” (Henkel Kommanditgesellschaft auf Aktien, priority 2005, dated 2007).
Read-outs that look alike come from different tables or passages of the source.

System: Staphylococcus hominis
Assay: Inhibition test: growth of Staphylococcus hominis in Luria broth liquid culture, plate count versus control
Format: cell-based
Settings: for log reduction at 0.1 % / log reduction at 0.05 % / log reduction at 0.2 % / log reduction at 0.5 %: Staphylococcus hominis, read-out: Hemmleistung als Differenz zur Kontrolle in log-Stufen (RF-Wert); for log reduction at 0.1 %: 0,1 Gew.-% Aktivsubstanz; for log reduction at 0.1 % / log reduction at 0.05 % / Hemmleistung als Differenz zur Kontrolle in log-Stufen (RF-Wert): 37°C; for log reduction at 0.05 %: 0,05 Gew.-% Aktivsubstanz; for Hemmleistung als Differenz zur Kontrolle in log-Stufen (RF-Wert): 0,5 Gew.-% Aktivsubstanz
Protocol: Eine Luria-broth-Vorkultur (1 Gew.-% Trypton, 0,5 Gew.-% Hefeextrakt, 0,5 Gew.-% NaCl) von Staphylococcus hominis wurde mit Medium auf eine OD600 von 0,1 (entspricht 10^5-10^7 cfu/ml) eingestellt und in 50 ml-Aliquots auf Erlenmeyer-Kolben verteilt. Dazu wurden die zu testenden Wirkstoffe gegeben, so dass sie in den in Tabelle 1 angegebenen Konzentrationen vorlagen, und die Kultur mit 100 Upm bei 37°C inkubiert. Öllösliche Stoffe wie Bisabolol wurden mit 0,1% Tween emulgiert und gegen eine entsprechende Kontrolle getestet. Nach 4, 8 und 24 h erfolgte eine Keimzahlbestimmung über Ausplattieren, wobei die Hemmleistung der einzelnen Wirkstoffe als RF-Wert (Differenz zur Kontrolle in log-Stufen) angegeben ist. Tabelle 1

Work on `CC(C)=CCC[C@](C)(O)C1CC=C(C)CC1` (stereo partly drawn) [(-)-α-Bisabolol] yielded a log reduction at 0.1 % (Zeit 0 h) of 0, a log reduction at 0.1 % (Zeit 4 h) of 1.98 and a log reduction at 0.1 % (Zeit 8 h) of 2.6. It also gave a log reduction at 0.05 % (Zeit 0 h) of 0, a log reduction at 0.05 % (Zeit 4 h) of 1.3 and a log reduction at 0.05 % (Zeit 8 h) of 1.75.

With Aluminiumchlorhydrat the “Hemmleistung als Differenz zur Kontrolle in log-Stufen (RF-Wert)” value (Zeit 0 h) was 0 log-Stufen, the “Hemmleistung als Differenz zur Kontrolle in log-Stufen (RF-Wert)” value (Zeit 4 h) was 6,07 log-Stufen and the “Hemmleistung als Differenz zur Kontrolle in log-Stufen (RF-Wert)” value (Zeit 8 h) was 6,34 log-Stufen.

With `CCCCC(CC)COCC(O)CO` (stereo not drawn) [Sensiva SC 50, α-Mono-(2-ethylhexyl)glycerinether] the log reduction at 0.2 % (0 h) was 0, the log reduction at 0.5 % (0 h) was 0 and the log reduction at 0.2 % (4 h) was 5.77. The log reduction at 0.5 % (4 h) was 6.14, the log reduction at 0.2 % (8 h) was 6.19 and the log reduction at 0.5 % (8 h) was 6.63.
